Activity calls are given as the source filed them.
What was measured:
Assay type in all cases: functional, cell-based
[1] = system: CCRF-CEM; experiment: Growth inhibition of human CCRF-CEM cells at 10 uM after 48 hrs by sulforhodamine B assay
[2] = system: HL-60(TB); experiment: Growth inhibition of human HL-60(TB) cells at 10 uM after 48 hrs by sulforhodamine B assay
[3] = system: K562; experiment: Growth inhibition of human K562 cells at 10 uM after 48 hrs by sulforhodamine B assay
[4] = system: MOLT-4; experiment: Growth inhibition of human MOLT4 cells at 10 uM after 48 hrs by sulforhodamine B assay
[5] = system: RPMI-8226; experiment: Growth inhibition of human RPMI8226 cells at 10 uM after 48 hrs by sulforhodamine B assay
[6] = system: SR; experiment: Growth inhibition of human SR cells at 10 uM after 48 hrs by sulforhodamine B assay
[7] = system: A549; experiment: Growth inhibition of human A549/ATCC cells at 10 uM after 48 hrs by sulforhodamine B assay
[8] = system: EKVX; experiment: Growth inhibition of human EKVX cells at 10 uM after 48 hrs by sulforhodamine B assay
[9] = system: HOP-62; experiment: Growth inhibition of human HOP62 cells at 10 uM after 48 hrs by sulforhodamine B assay
[10] = system: HOP-92; experiment: Growth inhibition of human HOP92 cells at 10 uM after 48 hrs by sulforhodamine B assay
[11] = system: NCI-H226; experiment: Growth inhibition of human NCI-H226 cells at 10 uM after 48 hrs by sulforhodamine B assay
[12] = system: NCI-H23; experiment: Growth inhibition of human NCI-H23 cells at 10 uM after 48 hrs by sulforhodamine B assay
[13] = system: NCI-H322M; experiment: Growth inhibition of human NCI-H322M cells at 10 uM after 48 hrs by sulforhodamine B assay
[14] = system: NCI-H460; experiment: Growth inhibition of human NCI-H460 cells at 10 uM after 48 hrs by sulforhodamine B assay
[15] = system: NCI-H522; experiment: Growth inhibition of human NCI-H522 cells at 10 uM after 48 hrs by sulforhodamine B assay
[16] = system: COLO 205; experiment: Growth inhibition of human COLO205 cells at 10 uM after 48 hrs by sulforhodamine B assay
[17] = system: HCC 2998; experiment: Growth inhibition of human HCC2998 cells at 10 uM after 48 hrs by sulforhodamine B assay
[18] = system: HCT-116; experiment: Growth inhibition of human HCT116 cells at 10 uM after 48 hrs by sulforhodamine B assay
[19] = system: HCT-15; experiment: Growth inhibition of human HCT15 cells at 10 uM after 48 hrs by sulforhodamine B assay
[20] = system: HT-29; experiment: Growth inhibition of human HT-29 cells at 10 uM after 48 hrs by sulforhodamine B assay
[21] = system: KM12; experiment: Growth inhibition of human KM12 cells at 10 uM after 48 hrs by sulforhodamine B assay
[22] = system: SW-620; experiment: Growth inhibition of human SW620 cells at 10 uM after 48 hrs by sulforhodamine B assay
[23] = system: SF-268; experiment: Growth inhibition of human SF268 cells at 10 uM after 48 hrs by sulforhodamine B assay
[24] = system: SF-295; experiment: Growth inhibition of human SF295 cells at 10 uM after 48 hrs by sulforhodamine B assay
[25] = system: SF-539; experiment: Growth inhibition of human SF539 cells at 10 uM after 48 hrs by sulforhodamine B assay
[26] = system: SNB-19; experiment: Growth inhibition of human SNB19 cells at 10 uM after 48 hrs by sulforhodamine B assay
[27] = system: SNB-75; experiment: Growth inhibition of human SNB75 cells at 10 uM after 48 hrs by sulforhodamine B assay
[28] = system: U-251; experiment: Growth inhibition of human U251 cells at 10 uM after 48 hrs by sulforhodamine B assay
[29] = system: LOX IMVI; experiment: Growth inhibition of human LOXIMVI cells at 10 uM after 48 hrs by sulforhodamine B assay
[30] = system: Malme-3M; experiment: Growth inhibition of human MALME-3M cells at 10 uM after 48 hrs by sulforhodamine B assay
[31] = system: M14; experiment: Growth inhibition of human M14 cells at 10 uM after 48 hrs by sulforhodamine B assay
[32] = system: MDA-MB-435; experiment: Growth inhibition of human MDA-MB-435 cells at 10 uM after 48 hrs by sulforhodamine B assay
[33] = system: SK-MEL-2; experiment: Growth inhibition of human SK-MEL-2 cells at 10 uM after 48 hrs by sulforhodamine B assay
[34] = system: SK-MEL-28; experiment: Growth inhibition of human SK-MEL-28 cells at 10 uM after 48 hrs by sulforhodamine B assay
[35] = system: SK-MEL-5; experiment: Growth inhibition of human SK-MEL-5 cells at 10 uM after 48 hrs by sulforhodamine B assay
[36] = system: UACC-62; experiment: Growth inhibition of human UACC62 cells at 10 uM after 48 hrs by sulforhodamine B assay
[37] = system: IGROV-1; experiment: Growth inhibition of human IGROV1 cells at 10 uM after 48 hrs by sulforhodamine B assay
[38] = system: OVCAR-3; experiment: Growth inhibition of human OVCAR3 cells at 10 uM after 48 hrs by sulforhodamine B assay
[39] = system: OVCAR-4; experiment: Growth inhibition of human OVCAR4 cells at 10 uM after 48 hrs by sulforhodamine B assay
[40] = system: OVCAR-5; experiment: Growth inhibition of human OVCAR5 cells at 10 uM after 48 hrs by sulforhodamine B assay
[41] = system: OVCAR-8; experiment: Growth inhibition of human OVCAR8 cells at 10 uM after 48 hrs by sulforhodamine B assay
[42] = system: NCI/ADR-RES; experiment: Growth inhibition of human NCI-ADR-RES cells at 10 uM after 48 hrs by sulforhodamine B assay
[43] = system: SK-OV-3; experiment: Growth inhibition of human SKOV3 cells at 10 uM after 48 hrs by sulforhodamine B assay
[44] = system: 786-0; experiment: Growth inhibition of human 786-0 cells at 10 uM after 48 hrs by sulforhodamine B assay
[45] = system: A498; experiment: Growth inhibition of human A498 cells at 10 uM after 48 hrs by sulforhodamine B assay
[46] = system: ACHN; experiment: Growth inhibition of human ACHN cells at 10 uM after 48 hrs by sulforhodamine B assay
[47] = system: CAKI-1; experiment: Growth inhibition of human CAKI-1 cells at 10 uM after 48 hrs by sulforhodamine B assay
[48] = system: RXF 393; experiment: Growth inhibition of human RXF393 cells at 10 uM after 48 hrs by sulforhodamine B assay
[49] = system: SN12C; experiment: Growth inhibition of human SN12C cells at 10 uM after 48 hrs by sulforhodamine B assay
[50] = system: TK-10; experiment: Growth inhibition of human TK10 cells at 10 uM after 48 hrs by sulforhodamine B assay
[51] = system: UO-31; experiment: Growth inhibition of human UO31 cells at 10 uM after 48 hrs by sulforhodamine B assay
[52] = system: PC-3; experiment: Growth inhibition of human PC3 cells at 10 uM after 48 hrs by sulforhodamine B assay
[53] = system: DU-145; experiment: Growth inhibition of human DU145 cells at 10 uM after 48 hrs by sulforhodamine B assay
[54] = system: MCF7; experiment: Growth inhibition of human MCF7 cells at 10 uM after 48 hrs by sulforhodamine B assay
[55] = system: MDA-MB-231; experiment: Growth inhibition of human MDA-MB-231 cells at 10 uM after 48 hrs by sulforhodamine B assay
[56] = system: Hs-578T; experiment: Growth inhibition of human Hs 578T cells at 10 uM after 48 hrs by sulforhodamine B assay
[57] = system: BT-549; experiment: Growth inhibition of human BT549 cells at 10 uM after 48 hrs by sulforhodamine B assay
[58] = system: T47D; experiment: Growth inhibition of human T47D cells at 10 uM after 48 hrs by sulforhodamine B assay
[59] = system: MDA-MB-468; experiment: Growth inhibition of human MDA-MB-468 cells at 10 uM after 48 hrs by sulforhodamine B assay

Measured: growth inhibition (GI)

O=C1/C(=C\c2cccn2C(=O)c2ccccc2)c2ccccc2N1c1c(Cl)cccc1Cl
inactive: all assays above

Reference: ChEMBL document CHEMBL4177730, “Rational modification of semaxanib and sunitinib for developing a tumor growth inhibitor targeting ATP binding site of tyrosine kinase” (2018)
